Laboratory results taken from patent US10927123B2, “Modulators of the beta-3 adrenergic receptor useful for the treatment or prevention of disorders related thereto” (Arena Pharmaceuticals, Inc., priority 2016, dated 2021).
“Also recorded” adds a separate entry of the source.

Experiments:
normal rats = test: Attenuation of negative contractile effect of BRL 37344 on left ventricular pressure in normal rats; format: in vivo, rat; conditions: test compound infusion 3, 10, 30 or 60 mg/kg, BRL 37344 bolus 3 μg/kg
Description: (§1) Beta-3 adrenergic receptor antagonists were evaluated for effects on cardiac contractility in normal and chronic heart failure (CHF) rats. Because beta-3 adrenergic receptor expression is weak in the normal rat heart, compounds were evaluated for the ability to attenuate the negative contractile effects of the beta-3 adrenergic receptor agonist BRL 37344 (Tocris Bioscience, Bristol, UK) in the normal rats. Because beta-3 adrenergic receptor expression is higher in the rat heart with CHF, a compound was evaluated for the ability to improve contractility compared to baseline in this CHF rat model.
A direct determination of left ventricular function was used for all rats to evaluate the effects of compounds on left ventricular contractility. Right carotid artery catheterization was used for contractility measurements. The rats were anesthetized with an intraperitoneal injection of INACTIN® (Cat #T-133, Sigma, St. Louis, Mo.) (100 mg/kg body weight), and a Millar MIKRO-TIP® pressure catheter (Cat #SPR-320NR, Millar, Inc., Houston, Tex.) was passed through the carotid artery into left ventricle. Left ventricular pressure (LVP) was monitored by LabChart with POWERLAB® Data Acquisition System (ADlnstruments, Sydney, Australia).
Jugular vein catheterization was used for compound administration. A silastic catheter (Cat #427411, BD, Franklin Lakes, N.J.) was introduced into the jugular vein, and a right venous catheter was connected to an automated drug delivery system (11 Plus Syringe Pump, Harvard Apparatus, Holliston, Mass.).
In the normal rats, 3 mg/kg, 10 mg/kg, 30 mg/kg, or 60 mg/kg of test compounds were administered starting 30-45 minutes after catheter implantation. A bolus injection of BRL 37344 (3 μg/kg) was administered via the left jugular vein 15-20 minutes after test compound infusion was started, and five minutes before compound infusion was stopped. A blood sample (800 μl) was then taken from the left venous catheter five minutes after the bolus injection of BRL 37344 (FIG. 25).

[1] = target: Beta-3 Adrenergic Receptor (Homo sapiens (Human), UniProt P13945); test: HTRF cAMP antagonist assay (IC50 determination); format: cell-based; conditions: CHO-K1 cells stably expressing recombinant receptor; antagonism of isoproterenol at EC90; cAMP readout
How it was run: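 CHO-K1 cells stably expressing receptor, 1500 cells/well, preincubated briefly with 10-point 5-fold compound series (top final typically 10 or 100 μM) in PBS with 1 mM IBMX, then challenged with isoproterenol at EC90 for 1 h at room temperature. cAMP read by HTRF against on-plate standard curve; IC50 from dose-response.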

[2] = system: chronic heart failure (CHF) rats; test: Left ventricular contractility in chronic heart failure (CHF) rats; format: in vivo, rat
Description: as §1, with “model. […]” for “model.”
Heart failure was evaluated weekly following surgery by testing impaired left ventricular function by echocardiography. Left ventricle end-diastolic volume (LVEDV) and left ventricle end-systolic volume (LVESV) were measured for at least three consecutive cardiac cycles in long-axis view images. Ejection Fraction (EF %) was calculated using the following formula: EF %=(LVEDV−LVESV)/LVEDV. […]
A direct determination of left ventricular function was used for all rats to evaluate the effects of compounds on left ventricular contractility. […] Left ventricular pressure (LVP) was monitored by LabChart with POWERLAB® Data Acquisition System (ADlnstruments, Sydney, Australia). […]
Development of CHF was monitored by echocardiography in rats after the surgically-induced myocardial infarction. […]

Beta-3 Adrenergic Receptor, sequence (P13945 whole entry, species assumed): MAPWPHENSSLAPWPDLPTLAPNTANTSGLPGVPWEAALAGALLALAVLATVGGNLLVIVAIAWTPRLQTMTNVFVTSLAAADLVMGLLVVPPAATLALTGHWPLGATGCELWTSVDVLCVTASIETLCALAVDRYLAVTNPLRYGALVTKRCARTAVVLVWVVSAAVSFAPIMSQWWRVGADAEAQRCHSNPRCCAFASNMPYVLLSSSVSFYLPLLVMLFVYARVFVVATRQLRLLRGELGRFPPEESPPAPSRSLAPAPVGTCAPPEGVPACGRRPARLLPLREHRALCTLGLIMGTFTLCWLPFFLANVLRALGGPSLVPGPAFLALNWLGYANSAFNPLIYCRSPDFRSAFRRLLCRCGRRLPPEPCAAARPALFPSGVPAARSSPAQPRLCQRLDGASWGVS

SMILES	inhibition of the negative effect of beta-3 adrenergic receptor agonist BRL on LVP (normal rats)	IC50 [1]	contractility compared to baseline ([2]; rat with CHF, infusion 10 mg/kg then 30 mg/kg, 10 minutes each)	inhibition of negative effects of BRL on LVP in a rat with heart failure (figure legend) ([2]; rat with heart failure, FIG. 32)
O=S(=O)(CCO)c1cccc(OC[C@@H](O)CN[C@H]2COC3(CCN(S(=O)(=O)c4cnc5ccccc5c4)CC3)C2)c1 [Compound 88, (S)-1-(3-(2-hydroxyethylsulfonyl)phenoxy)-3-((R)-8-(quinolin-3-ylsulfonyl)-1-oxa-8-azaspiro[4.5]decan-3-ylamino)propan-2-ol]	dose-dependently inhibited; also recorded: inhibition of negative effects of BRL on LVP	25.1 nM	trend toward improved contractility with increased dosage	inhibition of negative effects of BRL on LVP
NC(=O)CS(=O)(=O)c1cccc(OC[C@@H](O)CN[C@H]2COC3(CCN(S(=O)(=O)c4cnc5ccccc5c4)CC3)C2)c1 [Compound 123, 2-(3-((S)-2-hydroxy-3-((R)-8-(quinolin-3-ylsulfonyl)-1-oxa-8-azaspiro[4.5]decan-3-ylamino)propoxy)phenylsulfonyl)acetamide]	dose-dependently inhibited; also recorded: inhibition of negative effects of BRL on LVP	53.2 nM		
CN1CCOc2ncc(S(=O)(=O)N3CCC4(CC3)C[C@@H](NC[C@H](O)COc3cccc(S(=O)(=O)C5CC5)c3)CO4)cc21 [Compound 154, (S)-1-(3-(cyclopropylsulfonyl)phenoxy)-3-((R)-8-(1-methyl-2,3-dihydro-1H-pyrido[2,3-b][1,4]oxazin-7-ylsulfonyl)-1-oxa-8-azaspiro[4.5]decan-3-ylamino)propan-2-ol]	dose-dependently inhibited; also recorded: inhibition of negative effects of BRL on LVP	17.5 nM		
CCOc1ccc(-c2ccc(CN)cc2)cc1S(=O)(=O)N1CCC2(CC1)C[C@H](NC[C@H](O)COc1cccc(S(=O)(=O)C3(CO)CC3)c1)CO2 [Compound 163, (S)-1-((S)-8-(4′-(aminomethyl)-4-ethoxybiphenyl-3-ylsulfonyl)-1-oxa-8-azaspiro[4.5]decan-3-ylamino)-3-(3-(1-(hydroxymethyl)cyclopropylsulfonyl)phenoxy)propan-2-ol]	dose-dependently inhibited; also recorded: inhibition of negative effects of BRL on LVP	17.3 nM		
CCn1cc(S(=O)(=O)N2CCC3(CC2)C[C@@H](NC[C@H](O)COc2cccc(S(C)(=O)=O)c2)CO3)c(=O)c2ccccc21 [Compound 310, 1-ethyl-3-((R)-3-((S)-2-hydroxy-3-(3-(methylsulfonyl)phenoxy)propylamino)-1-oxa-8-azaspiro[4.5]decan-8-ylsulfonyl)quinolin-4(1H)-one]	dose-dependently inhibited; also recorded: inhibition of negative effects of BRL on LVP	37.6 nM		
